Measurements published in US20100184699A1, “Peptide Derived From Prostate-Related Protein As Cancer Vaccine Candidate For Prostate Cancer Patient Who Is Positive For Hla-A3 Super-Type Allele Molecule” (priority 2005, published 2010).
Several values for one entry are separate records, joined by “and”; a condition that tells them apart may be missing. Equal values may be shown once.

What was measured:
[1] = test system: C1R-A11, -A31 or -A33 cells pulsed with corresponding peptide; experiment: Induction of peptide-specific CTLs from PBMCs (IFN-γ ELISA); format: cell-based, human
[2] = test system: peptide-specific IgG in plasma of prostate cancer patients and healthy donors; experiment: Detection of peptide-specific IgG in plasma by ELISA; format: binding, human; details: for IgG reactive to peptide in plasma: 1:100-diluted plasma; for frequency of detection of peptide-reactive IgG: plasma of prostate cancer patients, compared within PSA, PAP or PSMA peptides
[3] = Prostate cancer patient 10, A11
[4] = Prostate cancer patient 12, A11
[5] = Prostate cancer patient 13, A11
[6] = Prostate cancer patient 14, A33
[7] = Prostate cancer patient 16, A33
[8] = Prostate cancer patient 17, A33
[9] = Prostate cancer patient 18, A33
[10] = Prostate cancer patient 19, A33
[11] = Prostate cancer patient 20, A33

Row | Sequence | Total (positive / tested) [1] | IgG reactive to peptide in plasma ([2]; Healthy donor 9, A11) | IgG reactive to peptide in plasma, Total (positive/tested) ([2]; Healthy donors) | IgG reactive to peptide in plasma ([2]; Prostate cancer patient 3, A31) | IgG reactive to peptide in plasma ([2]; Prostate cancer patient 4, A31) | IgG reactive to peptide in plasma ([2]; Prostate cancer patient 5, A31) | IgG reactive to peptide in plasma ([2]; Prostate cancer patient 6, A31) | IgG reactive to peptide in plasma ([2]; Prostate cancer patient 8, A11) | IgG reactive to peptide in plasma ([2]; Prostate cancer patient 9, A11) | IgG reactive to peptide in plasma [2, 3] | IgG reactive to peptide in plasma [2, 4] | IgG reactive to peptide in plasma [2, 5] | IgG reactive to peptide in plasma [2, 6] | IgG reactive to peptide in plasma [2, 7] | IgG reactive to peptide in plasma [2, 8] | IgG reactive to peptide in plasma [2, 9] | IgG reactive to peptide in plasma [2, 10] | IgG reactive to peptide in plasma [2, 11] | IgG reactive to peptide in plasma, Total (positive/tested) ([2]; Prostate cancer patients) | frequency of detection of peptide-reactive IgG [2] | further results
1 | GTLKKEGWR (PSMA 403-411) [PSMA-derived peptide] | 1/13 and 3/9 | + (IgG reactive to a corresponding peptide was judged to be positive when a difference of the optical density (OD) in a 1:100-diluted plasma was more than 100) | 2/9 | + (IgG reactive to a corresponding peptide was judged to be positive when a difference of the optical density (OD) in a 1:100-diluted plasma was more than 100) | + (IgG reactive to a corresponding peptide was judged to be positive when a difference of the optical density (OD) in a 1:100-diluted plasma was more than 100) | + (IgG reactive to a corresponding peptide was judged to be positive when a difference of the optical density (OD) in a 1:100-diluted plasma was more than 100) | + (IgG reactive to a corresponding peptide was judged to be positive when a difference of the optical density (OD) in a 1:100-diluted plasma was more than 100) | + (IgG reactive to a corresponding peptide was judged to be positive when a difference of the optical density (OD) in a 1:100-diluted plasma was more than 100) | + (IgG reactive to a corresponding peptide was judged to be positive when a difference of the optical density (OD) in a 1:100-diluted plasma was more than 100) | + (IgG reactive to a corresponding peptide was judged to be positive when a difference of the optical density (OD) in a 1:100-diluted plasma was more than 100) | + (IgG reactive to a corresponding peptide was judged to be positive when a difference of the optical density (OD) in a 1:100-diluted plasma was more than 100) | + (IgG reactive to a corresponding peptide was judged to be positive when a difference of the optical density (OD) in a 1:100-diluted plasma was more than 100) | + (IgG reactive to a corresponding peptide was judged to be positive when a difference of the optical density (OD) in a 1:100-diluted plasma was more than 100) | + (IgG reactive to a corresponding peptide was judged to be positive when a difference of the optical density (OD) in a 1:100-diluted plasma was more than 100) | + (IgG reactive to a corresponding peptide was judged to be positive when a difference of the optical density (OD) in a 1:100-diluted plasma was more than 100) | + (IgG reactive to a corresponding peptide was judged to be positive when a difference of the optical density (OD) in a 1:100-diluted plasma was more than 100) | + (IgG reactive to a corresponding peptide was judged to be positive when a difference of the optical density (OD) in a 1:100-diluted plasma was more than 100) | + (IgG reactive to a corresponding peptide was judged to be positive when a difference of the optical density (OD) in a 1:100-diluted plasma was more than 100) | 19/20 | more frequently | IgG reactive to peptide in plasma ([2]; Healthy donor 3, A31): + (IgG reactive to a corresponding peptide was judged to be positive when a difference of the optical density (OD) in a 1:100-diluted plasma was more than 100); IgG reactive to peptide in plasma ([2]; Prostate cancer patient 1, A31): + (IgG reactive to a corresponding peptide was judged to be positive when a difference of the optical density (OD) in a 1:100-diluted plasma was more than 100); IgG reactive to peptide in plasma ([2]; Prostate cancer patient 2, A31): + (IgG reactive to a corresponding peptide was judged to be positive when a difference of the optical density (OD) in a 1:100-diluted plasma was more than 100); IgG reactive to peptide in plasma ([2]; Prostate cancer patient 7, A11): + (IgG reactive to a corresponding peptide was judged to be positive when a difference of the optical density (OD) in a 1:100-diluted plasma was more than 100); IgG reactive to peptide in plasma ([2]; Prostate cancer patient 15, A33): + (IgG reactive to a corresponding peptide was judged to be positive when a difference of the optical density (OD) in a 1:100-diluted plasma was more than 100)
2 | EIASKFSER [PSMA 641-649] | 1/13 and 2/9 | + (IgG reactive to a corresponding peptide was judged to be positive when a difference of the optical density (OD) in a 1:100-diluted plasma was more than 100) | 1/9 | – | + (IgG reactive to a corresponding peptide was judged to be positive when a difference of the optical density (OD) in a 1:100-diluted plasma was more than 100) | + (IgG reactive to a corresponding peptide was judged to be positive when a difference of the optical density (OD) in a 1:100-diluted plasma was more than 100) | + (IgG reactive to a corresponding peptide was judged to be positive when a difference of the optical density (OD) in a 1:100-diluted plasma was more than 100) | + (IgG reactive to a corresponding peptide was judged to be positive when a difference of the optical density (OD) in a 1:100-diluted plasma was more than 100) | + (IgG reactive to a corresponding peptide was judged to be positive when a difference of the optical density (OD) in a 1:100-diluted plasma was more than 100) | + (IgG reactive to a corresponding peptide was judged to be positive when a difference of the optical density (OD) in a 1:100-diluted plasma was more than 100) | + (IgG reactive to a corresponding peptide was judged to be positive when a difference of the optical density (OD) in a 1:100-diluted plasma was more than 100) | + (IgG reactive to a corresponding peptide was judged to be positive when a difference of the optical density (OD) in a 1:100-diluted plasma was more than 100) | + (IgG reactive to a corresponding peptide was judged to be positive when a difference of the optical density (OD) in a 1:100-diluted plasma was more than 100) | – | + (IgG reactive to a corresponding peptide was judged to be positive when a difference of the optical density (OD) in a 1:100-diluted plasma was more than 100) | + (IgG reactive to a corresponding peptide was judged to be positive when a difference of the optical density (OD) in a 1:100-diluted plasma was more than 100) | + (IgG reactive to a corresponding peptide was judged to be positive when a difference of the optical density (OD) in a 1:100-diluted plasma was more than 100) | + (IgG reactive to a corresponding peptide was judged to be positive when a difference of the optical density (OD) in a 1:100-diluted plasma was more than 100) | 13/20 | more frequently | –
3 | TLKSEEFQKR [PAP 171-180] | 0/13 and 8/9 | – | 0/9 | – | – | – | – | – | + (IgG reactive to a corresponding peptide was judged to be positive when a difference of the optical density (OD) in a 1:100-diluted plasma was more than 100) | + (IgG reactive to a corresponding peptide was judged to be positive when a difference of the optical density (OD) in a 1:100-diluted plasma was more than 100) | – | + (IgG reactive to a corresponding peptide was judged to be positive when a difference of the optical density (OD) in a 1:100-diluted plasma was more than 100) | + (IgG reactive to a corresponding peptide was judged to be positive when a difference of the optical density (OD) in a 1:100-diluted plasma was more than 100) | – | – | – | – | – | 4/20 | more frequently | –
4 | KIVIARYGK (PSMA 199-207) [PSMA-derived peptide] | 0/13 and 4/9 | – | 0/9 | – | – | – | – | – | – | – | – | – | – | – | – | – | – | + (IgG reactive to a corresponding peptide was judged to be positive when a difference of the optical density (OD) in a 1:100-diluted plasma was more than 100) | 1/20 | less frequently | –
5 | LFLLFFWLDR (PAP 19-28) [PAP-derived peptide] | 1/13 and 2/9 | – | – | – | – | – | – | – | – | – | – | – | – | – | – | – | – | – | – | less frequently | –
6 | SLLKNRFLR (PSA 104-112) [PSA-derived peptide] | 3/13 and 1/9 | – | 0/9 | + (IgG reactive to a corresponding peptide was judged to be positive when a difference of the optical density (OD) in a 1:100-diluted plasma was more than 100) | – | – | – | + (IgG reactive to a corresponding peptide was judged to be positive when a difference of the optical density (OD) in a 1:100-diluted plasma was more than 100) | + (IgG reactive to a corresponding peptide was judged to be positive when a difference of the optical density (OD) in a 1:100-diluted plasma was more than 100) | + (IgG reactive to a corresponding peptide was judged to be positive when a difference of the optical density (OD) in a 1:100-diluted plasma was more than 100) | – | – | – | + (IgG reactive to a corresponding peptide was judged to be positive when a difference of the optical density (OD) in a 1:100-diluted plasma was more than 100) | – | – | + (IgG reactive to a corresponding peptide was judged to be positive when a difference of the optical density (OD) in a 1:100-diluted plasma was more than 100) | – | 5/20 | more frequently | –
